Results reported in patent publication US20160176867A1, “MODIFIED BET-PROTEIN-INHIBITING DIHYDROQUINOXALINONES AND DIHYDROPYRIDOPYRAZINONES” (BAYER PHARMA AKTIENGESELLSCHAFT, priority 2013, published 2016).

Biological target: T1, BRD4 bromo domain 1 [BRD4(1)] (Homo sapiens, UniProt O60885)
T1 construct: N-terminally His6-tagged BRD4(1) (amino acids 67-152); made in house; host or cells: E. coli
Experiment: BRD4/acetylated peptide H4 binding assay (TR-FRET), BRD4 bromo domain 1
Settings: inhibition of BRD4(1)/Ac-H4 peptide interaction
Outline: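 TR-FRET (665/620 nm ratio) measuring displacement of biotinylated tetra-acetylated H4 peptide from His6-BRD4(1) (aa 67-152, E. coli; typically 10 nM) at pH 7.5. Compound (11 concentrations, 0.1 nM–20 μM, duplicates) was preincubated 10 min at 22°C, then 1 h at 22°C and ≥3 h at 4°C; IC50 from 4-parameter fit normalized to DMSO and no-BRD4 controls.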

Compound | IC50 [nM]
C[C@@H]1C(=O)N(C)c2ccc(Nc3cccc(C(=O)N[C@H]4CC[C@H](N5CCN(CC6CC6)CC5)CC4)c3)nc2N1Cc1ccccc1 [Example 72, 3-{[(3R)-4-benzyl-1,3-dimethyl-2-oxo-1,2,3,4-tetrahydropyrido[2,3-b]pyrazin-6-yl]amino}-N-{trans-4-[4-(cyclo-propylmethyl)piperazin-1-yl]cyclohexyl}benzamide] | 62
C[C@@H]1C(=O)N(C)c2ccc(Nc3cccc(S(=O)(=O)N[C@H]4CC[C@H](N5CCN(CC6CC6)CC5)CC4)c3)nc2N1C1CCNCC1 [Example 127, N-{trans-4-[4-(cyclopropylmethyl)piperazin-1-yl]cyclohexyl}-3-{[(3R)-1,3-dimethyl-2-oxo-4-(piperidin-4-yl)-1,2,3,4-tetrahydropyrido[2,3-b]pyrazin-6-yl]amino}-benzenesulphonamide] | 47
C[C@@H]1C(=O)N(C)c2ccc(Nc3cccc(S(=O)(=O)N4CCN(C)CC4)c3)nc2N1C1CCOCC1 [Example 12, (3R)-1,3-Dimethyl-6-({3-[(4-methylpiperazin-1-yl)sulphonyl]phenyl}amino)-4-(tetrahydro-2H-pyran-4-yl)-3,4-dihydropyrido[2,3-b]pyrazin-2(1H)-one] | 56
COc1ccc(S(=O)(=O)N2CCN(C)CC2)cc1Nc1ccc2c(n1)N(C1CCN(C)CC1)[C@H](C)C(=O)N2C [Example 46, (3R)-6-({2-methoxy-5-[(4-methylpiperazin-1-yl)sulphonyl]phenyl}-amino)-1,3-dimethyl-4-(1-methylpiperidin-4-yl)-3,4-dihydropyrido[2,3-b]pyrazin-2(1H)-one] | 51
C[C@@H]1C(=O)N(C)c2ccc(Nc3cccc(S(=O)(=O)NC4CCN(C)CC4)c3)nc2N1C1CCOCC1 [Example 20, 3-{[(3R)-1,3-Dimethyl-2-oxo-4-(tetrahydro-2H-pyran-4-yl)-1,2,3,4-tetrahydropyrido[2,3-b]pyrazin-6-yl]amino}-N-(1-methylpiperidin-4-yl)benzenesulphonamide] | 58
COc1ccc(CN2c3cc(Nc4cccc(S(=O)(=O)N(C)C)c4)ccc3N(C)C(=O)[C@H]2C)cc1 [Example 10, 3-{[(3R)-4-(4-Methoxybenzyl)-1,3-dimethyl-2-oxo-1,2,3,4-tetrahydroquinoxalin-6-yl]amino}-N,N-dimethylbenzenesulphonamide] | 159
C[C@@H]1C(=O)N(C)c2ccc(Nc3cccc(C(=O)NC4CN(C)C4)c3)nc2N1C1CCCC1 [Example 3, 3-{[(3R)-4-Cyclopentyl-1,3-dimethyl-2-oxo-1,2,3,4-tetrahydropyrido[2,3-b]pyrazin-6-yl]amino}-N-(1-methylazetidin-3-yl)benzamide] | 91
CC(C)N1c2nc(Nc3cccc(S(=O)(=O)NCCN(C)C)c3)ccc2N(C)C(=O)[C@H]1C [Example 55, N-[2-(dimethylamino)-ethyl]-3-{[(3R)-4-isopropyl-1,3-dimethyl-2-oxo-1,2,3,4-tetrahydro-pyrido[2,3-b]pyrazin-6-yl]amino}benzene-sulphonamide] | 112
C[C@@H]1C(=O)N(C)c2ccc(Nc3cccc(C(=O)N[C@H]4CC[C@H](N5CCN(CC6CC6)CC5)CC4)c3)nc2N1c1ccc(F)cc1 [Example 93] | 466
CC(C)N1c2nc(Nc3cccc(S(=O)(=O)NC4CCN(C)CC4)c3)ccc2N(C)C(=O)[C@H]1C [Example 51, 3-{[(3R)-4-isopropyl-1,3-dimethyl-2-oxo-1,2,3,4-tetrahydropyrido[2,3-b]pyrazin-6-yl]amino}-N-(1-methylpiperidin-4-yl)benzenesulphonamide] | 77
C[C@@H]1C(=O)N(C)c2ccc(Nc3cccc(C(=O)N[C@H]4CC[C@H](N5CCN(CC6CC6)CC5)CC4)c3)nc2N1C1CCCC1 [Example 5, 3-{[(3R)-4-Cyclopentyl-1,3-dimethyl-2-oxo-1,2,3,4-tetrahydropyrido[2,3-b]pyrazin-6-yl]amino}-N-{trans-4-[4-(cyclopropylmethyl)piperazin-1-yl]cyclohexyl}benzamide] | 99
C[C@@H]1C(=O)N(C)c2ccc(Nc3cccc(C(=O)N[C@H]4CC[C@H](N5CCN(CC6CC6)CC5)CC4)c3)nc2N1C1CCOCC1 [Example 14, N-{trans-4-[4-(Cyclopropylmethyl)piperazin-1-yl]cyclohexyl}-3-{[(3R)-1,3-dimethyl-2-oxo-4-(tetrahydro-2H-pyran-4-yl)-1,2,3,4-tetrahydropyrido[2,3-b]pyrazin-6-yl]amino}benzamide] | 144
CC(C)N1c2nc(Nc3cccc(S(=O)(=O)N4CCN(C)CC4)c3)ccc2N(C)C(=O)[C@H]1C [Example 43, (3R)-4-isopropyl-1,3-dimethyl-6-({3-[(4-methylpiperazin-1-yl)sulphonyl]phenyl}-amino)-3,4-dihydropyrido-[2,3-b]pyrazin-2(1H)-one] | 49
C[C@@H]1C(=O)N(C)c2ccc(Nc3cccc(C(=O)NC4CCN(C)CC4)c3)nc2N1Cc1ccccc1 [Example 73, 3-{[(3R)-4-benzyl-1,3-dimethyl-2-oxo-1,2,3,4-tetrahydropyrido[2,3-b]pyrazin-6-yl]amino}-N-(1-methylpiperidin-4-yl)benzamide] | 77

Now those with a lower IC50, led by results:

IC50 [nM] | Compound
38 | C[C@@H]1C(=O)N(C)c2ccc(Nc3cccc(S(=O)(=O)N4CCN(CC(F)(F)F)CC4)c3)nc2N1C1CCNCC1 [Example 126, (3R)-1,3-dimethyl-4-(piperidin-4-yl)-6-[(3-{[4-(2,2,2-trifluoroethyl)piperazin-1-yl]sulphonyl}phenyl)amino]-3,4-dihydropyrido[2,3-b]pyrazin-2(1H)-one]
30 | C[C@@H]1C(=O)N(C)c2ccc(Nc3cccc(S(=O)(=O)NC4CCN(C)CC4)c3)nc2N1C1CCNCC1 [Example 124, 3-{[(3R)-1,3-dimethyl-2-oxo-4-(piperidin-4-yl)-1,2,3,4-tetrahydropyrido[2,3-b]pyrazin-6-yl]amino}-N-(1-methylpiperidin-4-yl)benzenesulphonamide]
22 | C[C@@H]1C(=O)N(C)c2ccc(Nc3cccc(S(=O)(=O)NC4CCN(C)CC4)c3)nc2N1Cc1ccccc1 [Example 33, 3-{[(3R)-4-benzyl-1,3-dimethyl-2-oxo-1,2,3,4-tetrahydropyrido[2,3-b]pyrazin-6-yl]amino}-N-(1-methylpiperidin-4-yl)benzenesulphonamide]
19 | C[C@@H]1C(=O)N(C)c2ccc(Nc3cccc(S(=O)(=O)N[C@H]4CC[C@H](N5CCN(CC6CC6)CC5)CC4)c3)nc2N1Cc1ccccc1 [Example 38, 3-{[(3R)-4-benzyl-1,3-dimethyl-2-oxo-1,2,3,4-tetrahydropyrido[2,3-b]pyrazin-6-yl]amino}-N-{trans-4-[4-(cyclopropyl-methyl)piperazin-1-yl]cyclohexyl}-benzenesulphonamide]
17 | C[C@@H]1C(=O)N(C)c2ccc(Nc3cccc(S(=O)(=O)N4CCCC4)c3)nc2N1C1CCOCC1 [Example 27, (3R)-1,3-Dimethyl-6-{[3-(pyrrolidin-1-ylsulphonyl)phenyl]amino}-4-(tetrahydro-2H-pyran-4-yl)-3,4-dihydropyrido[2,3-b]pyrazin-2(1H)-one]
15 | CCNS(=O)(=O)c1cccc(Nc2ccc3c(n2)N(C2CCOCC2)[C@H](C)C(=O)N3C)c1 [Example 23, 3-{[(3R)-1,3-dimethyl-2-oxo-4-(tetrahydro-2H-pyran-4-yl)-1,2,3,4-tetrahydropyrido[2,3-b]pyrazin-6-yl]amino}-N-ethylbenzenesulphonamide]
